Values of other authors in patent US7884104B2, “Aminopiperidines as dipeptidyl peptidase-IV inhibitors for the treatment or prevention of diabetes” (Merck Sharp & Dohme Corp., priority 2004, dated 2011).

What was measured:
cardiac allograft = details: rats; doubled from day 7 to day 14
hematopoiesis = details: mouse, cyclophosphamide-induced neutropenia
DPP-IV = target: T1, DPP-IV (Homo sapiens, UniProt P27487)
T1 construct: GRF is rapidly degraded in plasma to GRF[344]; host or cells: plasma (endogenous enzyme activity)
T1 sequence (P27487 39-766 limits assumed, species assumed): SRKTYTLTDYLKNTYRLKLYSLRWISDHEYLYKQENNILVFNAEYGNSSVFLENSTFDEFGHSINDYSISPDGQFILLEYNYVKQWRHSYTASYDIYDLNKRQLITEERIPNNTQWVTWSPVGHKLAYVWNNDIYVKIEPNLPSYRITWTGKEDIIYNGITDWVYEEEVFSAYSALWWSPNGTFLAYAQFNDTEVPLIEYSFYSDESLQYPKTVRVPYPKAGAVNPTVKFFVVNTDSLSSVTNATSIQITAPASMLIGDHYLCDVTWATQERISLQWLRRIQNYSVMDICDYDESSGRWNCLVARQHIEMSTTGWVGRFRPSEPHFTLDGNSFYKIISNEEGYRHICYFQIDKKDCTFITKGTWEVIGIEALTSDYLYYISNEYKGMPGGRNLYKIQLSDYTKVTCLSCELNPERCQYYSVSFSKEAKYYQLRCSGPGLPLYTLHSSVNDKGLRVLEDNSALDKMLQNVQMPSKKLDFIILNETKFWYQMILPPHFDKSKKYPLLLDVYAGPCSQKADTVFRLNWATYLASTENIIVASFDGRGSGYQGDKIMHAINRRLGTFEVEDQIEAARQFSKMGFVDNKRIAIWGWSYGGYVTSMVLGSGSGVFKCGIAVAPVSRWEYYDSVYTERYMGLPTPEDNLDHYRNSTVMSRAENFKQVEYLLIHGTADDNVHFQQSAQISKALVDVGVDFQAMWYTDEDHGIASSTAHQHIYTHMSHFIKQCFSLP

CC(C)N1CCC(c2ccccc2)(c2ccccc2)CC1 [Prodipine, Pro-Pro-diphenyl-phosphonate]
cardiac allograft survival (cardiac allograft): 14 day

CC(C)[C@H](N)C(=O)N1CCC[C@H]1B(O)O [Val-Boro-Pro]
effect on hematopoiesis (hematopoiesis): stimulated hematopoiesis

diprotin A
effect on degradation of GRF in plasma (DPP-IV): prevented
